The record followed here is US20250214962A1, “PYRIDINONE DERIVATIVES AS SELECTIVE CYTOTOXIC AGENTS AGAINST HIV INFECTED CELLS” (Merck Sharp & Dohme LLC, priority 2019, published 2025).

Where two headings read alike, the source gives them in different places.

Assay [1] is described as follows: Viking EC50, 50% NHS. The assay is classed as cell-based. Particulars: method not described, read-out: Viking EC50_50% NHS.
Assay [2] concerns infected PBMCs (VSV-G pseudotyped HIV virus). The assay is described as follows: cells. The format is cell-based, human. The conditions noted are these: read-out: SMACK EC50_50% NHS.

In the case of `COCc1ccc(Cn2cnc(C(F)(F)C(F)F)c(Oc3cc(Cl)cc(C#N)c3F)c2=O)c(=O)[nH]1` [Example 1, 5-Chloro-2-Fluoro-3-((1-((6-(Methoxymethyl)-2-Oxo-1,2-Dihydropyridin-3-Yl)Methyl)-6-Oxo-4-(1,1,2,2-Tetrafluoroethyl)-1,6-Dihydropyrimidin-5-Yl)Oxy)Benzonitrile], the EC50 in assay [1] is 29.6 nM; in assay [2] (Homo sapiens, PBMC), 258 nM.
In the case of `N#Cc1cc(Cl)cc(Oc2c(C(F)(F)F)ncn(Cc3ccc(-c4cn[nH]c4)[nH]c3=O)c2=O)c1` [Example 30, 3-Chloro-5-((6-Oxo-1-((2-Oxo-6-(1H-Pyrazol-4-Yl)-1,2-Dihydropyridin-3-Yl)Methyl)-4-(Trifluoromethyl)-1,6-Dihydropyrimidin-5-Yl)Oxy)Benzonitrile], the EC50 in assay [1] stood at 30.1 nM; in assay [2] (Homo sapiens, PBMC), 415 nM.
On to `N#Cc1cc(Cl)cc(Oc2c(C(F)(F)C(F)F)ncn(Cc3ccc(CO)[nH]c3=O)c2=O)c1F` [Example 31, 5-Chloro-2-Fluoro-3-((1-((6-(Hydroxymethyl)-2-Oxo-1,2-Dihydropyridin-3-Yl)Methyl)-6-Oxo-4-(1,1,2,2-Tetrafluoroethyl)-1,6-Dihydropyrimidin-5-Yl)Oxy)Benzonitrile], for which the EC50 in assay [1] worked out at 20.7 nM; in assay [2] (Homo sapiens, PBMC), 86.8 nM.
For `Cc1c(C#N)cc(C(F)F)cc1Oc1c(C(F)(F)C(F)F)ncn(Cc2cc(F)c[nH]c2=O)c1=O` [Example 14, 5-(Difluoromethyl)-3-((1-((5-Fluoro-2-Oxo-1,2-Dihydropyridin-3-Yl)Methyl)-6-Oxo-4-(1,1,2,2-Tetrafluoroethyl)-1,6-Dihydropyrimidin-5-Yl)Oxy)-2-Methylbenzonitrile], in that order: 29.5 nM and 101 nM.
For `Cc1ccc(Cn2cnc(C(C)(F)F)c(Oc3cc(Cl)cc(C#N)c3F)c2=O)c(=O)[nH]1` [Example 3, 5-chloro-3-((4-(1,1-difluoroethyl)-1-((6-methyl-2-oxo-1,2-dihydropyridin-3-yl)methyl)-6-oxo-1,6-dihydropyrimidin-5-yl)oxy)-2-fluorobenzonitrile], in that order: 14.1 nM and 87.6 nM.
With `N#Cc1cc(Cl)cc(Oc2c(C(F)(F)C(F)(F)F)ncn(Cc3cc(F)c[nH]c3=O)c2=O)c1F` [Example 20, 5-chloro-2-fluoro-3-((1-((5-fluoro-2-oxo-1,2-dihydropyridin-3-yl)methyl)-6-oxo-4-(perfluoroethyl)-1,6-dihydropyrimidin-5-yl)oxy)benzonitrile], the EC50 turned out to be 83.7 nM in assay [1] and 99 nM in assay [2] (Homo sapiens, PBMC).
For `Cc1ccc(Cn2cnc(C(F)(F)C(F)F)c(Oc3cc(C(F)F)cc(C#N)c3C)c2=O)c(=O)[nH]1` [Example 22, 5-(difluoromethyl)-2-methyl-3-((1-((6-methyl-2-oxo-1,2-dihydropyridin-3-yl)methyl)-6-oxo-4-(1,1,2,2-tetrafluoroethyl)-1,6-dihydropyrimidin-5-yl)oxy)benzonitrile], in that order: 48.9 nM and 131 nM.
The matching figures for `Cc1cc(C#N)c(C)c(Oc2c(C(F)(F)C(F)F)ncn(Cc3c(C)cc(C)[nH]c3=O)c2=O)c1` [Example 24, 3-((1-((4,6-Dimethyl-2-Oxo-1,2-Dihydropyridin-3-Yl)Methyl)-6-Oxo-4-(1,1,2,2-Tetrafluoroethyl)-1,6-Dihydropyrimidin-5-Yl)Oxy)-2,5-Dimethylbenzonitrile]: 168 nM and 346 nM.
For `Cc1c(C#N)cc(C(F)F)cc1Oc1c(C(F)(F)C(F)(F)F)ncn(Cc2ccc[nH]c2=O)c1=O` [Example 23, 5-(Difluoromethyl)-2-Methyl-3-((6-Oxo-1-((2-Oxo-1,2-Dihydropyridin-3-Yl)Methyl)-4-(Perfluoroethyl)-1,6-Dihydropyrimidin-5-Yl)Oxy)Benzonitrile], the EC50 in assay [1] came to 53 nM; in assay [2] (Homo sapiens, PBMC) it was 234 nM.
For `Cc1c(C#N)cc(Cl)cc1Oc1c(C(F)(F)F)ncn(Cc2cc(F)c[nH]c2=O)c1=O` [Example 19, 5-chloro-3-((1-((5-fluoro-2-oxo-1,2-dihydropyridin-3-yl)methyl)-6-oxo-4-(trifluoromethyl)-1,6-dihydropyrimidin-5-yl)oxy)-2-methylbenzonitrile], in that order: 30.7 nM and 376 nM.
The matching figures for `Cc1ccc(Cn2cnc(C(F)(F)C(F)(F)F)c(Oc3cc(Cl)cc(C#N)c3F)c2=O)c(=O)[nH]1` [Example 21, 5-Chloro-2-Fluoro-3-((1-((6-Methyl-2-Oxo-1,2-Dihydropyridin-3-Yl)Methyl)-6-Oxo-4-(Perfluoroethyl)-1,6-Dihydropyrimidin-5-Yl)Oxy)Benzonitrile]: 76.8 nM and 152 nM.
For `CC(O)c1ccc(Cn2cnc(C(F)(F)C(F)F)c(Oc3cc(Cl)cc(C#N)c3F)c2=O)c(=O)[nH]1` (single isomer, unassigned) [Example 34], in that order: 43.1 nM and 270 nM.
With `N#Cc1cc(Cl)cc(Oc2c(C(F)(F)F)ncn(Cc3cc(F)c[nH]c3=O)c2=O)c1F` [Example 37, 5-chloro-2-fluoro-3-((1-((5-fluoro-2-oxo-1,2-dihydropyridin-3-yl)methyl)-6-oxo-4-(trifluoromethyl)-1,6-dihydropyrimidin-5-yl)oxy)benzonitrile], the EC50 amounted to 32.4 nM in assay [1] and 413 nM in assay [2] (Homo sapiens, PBMC).
Regarding `Cc1cc(C)c(Cn2cnc(C(F)(F)C(F)F)c(Oc3cc(Br)cc(C#N)c3)c2=O)c(=O)[nH]1` [Example 7, 3-bromo-5-((1-((4,6-dimethyl-2-oxo-1,2-dihydropyridin-3-yl)methyl)-6-oxo-4-(1,1,2,2-tetrafluoroethyl)-1,6-dihydropyrimidin-5-yl)oxy)benzonitrile], the EC50 is 29.1 nM in assay [1] and 433 nM in assay [2] (Homo sapiens, PBMC).
The matching figures for `Cc1cc(C)c(Cn2cnc(C(C)(F)F)c(Oc3cc(Cl)cc(C#N)c3F)c2=O)c(=O)[nH]1` [Example 2, 5-chloro-3-((4-(1,1-difluoroethyl)-1-((4,6-dimethyl-2-oxo-1,2-dihydropyridin-3-yl)methyl)-6-oxo-1,6-dihydropyrimidin-5-yl)oxy)-2-fluorobenzonitrile]: 37.4 nM and 294 nM.
The matching figures for `Cc1cc(C)c(Cn2cnc(C(F)(F)CF)c(Oc3cc(C(F)F)cc(C#N)c3C)c2=O)c(=O)[nH]1` [Example 41, 5-(difluoromethyl)-3-((1-((4,6-dimethyl-2-oxo-1,2-dihydropyridin-3-yl)methyl)-6-oxo-4-(1,1,2-trifluoroethyl)-1,6-dihydropyrimidin-5-yl)oxy)-2-methylbenzonitrile]: 59.8 nM and 283 nM.
The matching figures for `Cc1c(C#N)cc(C(F)F)cc1Oc1c(C(F)(F)C(F)F)ncn(Cc2ccc[nH]c2=O)c1=O` [Example 17, 5-(difluoromethyl)-2-methyl-3-((6-oxo-1-((2-oxo-1,2-dihydropyridin-3-yl)methyl)-4-(1,1,2,2-tetrafluoroethyl)-1,6-dihydropyrimidin-5-yl)oxy)benzonitrile]: 17.1 nM and 218 nM.
For the molecule `Cc1c(C#N)cc(C(F)F)cc1Oc1c(C(F)(F)C(F)F)ncn(Cc2ccc(CO)[nH]c2=O)c1=O` [Example 25, 5-(Difluoromethyl)-3-((1-((6-(Hydroxymethyl)-2-Oxo-1,2-Dihydropyridin-3-Yl)Methyl)-6-Oxo-4-(1,1,2,2-Tetrafluoroethyl)-1,6-Dihydropyrimidin-5-Yl)Oxy)-2-Methylbenzonitrile], the EC50 in assay [1] is 19.6 nM; in assay [2] (Homo sapiens, PBMC), 72.7 nM.
As to `Cc1c(C#N)cc(Cl)cc1Oc1c(C(F)(F)F)ncn(Cc2ccc(-c3cc[nH]n3)[nH]c2=O)c1=O` [Example 13, 5-chloro-2-methyl-3-((6-oxo-1-((2-oxo-6-(1H-pyrazol-3-yl)-1,2-dihydropyridin-3-yl)methyl)-4-(trifluoromethyl)-1,6-dihydropyrimidin-5-yl)oxy)benzonitrile], the EC50 in assay [1] worked out at 343 nM; in assay [2] (Homo sapiens, PBMC), 296 nM.
The matching figures for `Cc1c(C#N)cc(C(F)F)cc1Oc1c(C(F)(F)C(F)F)ncn(Cc2ccc(-c3cn[nH]c3)[nH]c2=O)c1=O` [Example 27, 5-(difluoromethyl)-3-((1-((2-hydroxy-6-(1H-pyrazol-4-yl)pyridin-3-yl)methyl)-6-oxo-4-(1,1,2,2-tetrafluoroethyl)-1,6-dihydropyrimidin-5-yl)oxy)-2-methylbenzonitrile]: 77.2 nM and 292 nM.
For `Cc1cc(C)c(Cn2cnc(C(F)(F)F)c(Oc3cc(C(F)F)cc(C#N)c3C)c2=O)c(=O)[nH]1` [Example 42, 5-(Difluoromethyl)-3-((1-((4,6-Dimethyl-2-Oxo-1,2-Dihydropyridin-3-Yl)Methyl)-6-Oxo-4-(Trifluoromethyl)-1,6-Dihydropyrimidin-5-Yl)Oxy)-2-Methylbenzonitrile], in that order: 43.1 nM and 222 nM.
As for `CC(F)c1ncn(Cc2ccc(CO)[nH]c2=O)c(=O)c1Oc1cc(Cl)cc(C#N)c1F` (single isomer, unassigned) [Example 33, 5-Chloro-2-Fluoro-3-((4-(1-Fluoroethyl)-1-((6-(Hydroxymethyl)-2-Oxo-1,2-Dihydropyridin-3-Yl)Methyl)-6-Oxo-1,6-Dihydropyrimidin-5-Yl)Oxy)Benzonitrile], the EC50 in assay [1] worked out at 23.1 nM; in assay [2] it was 389 nM.
For the molecule `Cc1cc(C)c(Cn2cnc(C(F)(F)C(F)F)c(Oc3cc(C#N)cc(C(F)F)c3)c2=O)c(=O)[nH]1` [Example 40, 3-(difluoromethyl)-5-((1-((4,6-dimethyl-2-oxo-1,2-dihydropyridin-3-yl)methyl)-6-oxo-4-(1,1,2,2-tetrafluoroethyl)-1,6-dihydropyrimidin-5-yl)oxy)benzonitrile], the EC50 in assay [1] amounted to 39.2 nM; in assay [2] (Homo sapiens, PBMC), 283 nM.
